ChEMBL document CHEMBL4507297, “Data for DCP probe PF-04457845” (2021)
Active and inactive are the calls of the source. The rule behind the calls is not given here.

Legend:
[1] = target: GABA-A receptor; anion channel (Rattus norvegicus) (UniProt O09028+P15431+P18506+P18508+P19969+P20236+P23574+P23576+P28471+P28473+P30191+P62813+P63079+P63138+Q91ZM7+Q9ES14); conditions: Compound concentration 10.0 uM
[2] = target: T1, Fatty-acid amide hydrolase 1 (Homo sapiens, UniProt O00519); test: Binding assay; set-up: compound concentration 10 uM
T1 sequence (O00519 whole entry): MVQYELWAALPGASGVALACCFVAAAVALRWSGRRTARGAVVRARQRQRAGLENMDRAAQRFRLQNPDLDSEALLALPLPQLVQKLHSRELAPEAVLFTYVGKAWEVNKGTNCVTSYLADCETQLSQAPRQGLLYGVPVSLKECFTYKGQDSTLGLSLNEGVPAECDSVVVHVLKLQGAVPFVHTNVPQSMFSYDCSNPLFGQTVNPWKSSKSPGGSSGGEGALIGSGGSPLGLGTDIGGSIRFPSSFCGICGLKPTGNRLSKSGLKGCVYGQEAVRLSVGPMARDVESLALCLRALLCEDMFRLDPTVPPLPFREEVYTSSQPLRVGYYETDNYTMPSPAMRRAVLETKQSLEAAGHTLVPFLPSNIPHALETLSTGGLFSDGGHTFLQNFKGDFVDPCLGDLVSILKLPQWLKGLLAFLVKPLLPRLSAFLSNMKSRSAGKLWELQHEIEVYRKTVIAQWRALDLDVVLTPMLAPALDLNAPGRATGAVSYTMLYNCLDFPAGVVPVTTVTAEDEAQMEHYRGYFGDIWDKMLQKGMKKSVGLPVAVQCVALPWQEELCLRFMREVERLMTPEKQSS

[3] = target: Delta-type opioid receptor (Homo sapiens) (UniProt P41143); conditions: Compound concentration 10.0 uM
Chain of Delta-type opioid receptor (Homo sapiens) (P41143 whole entry): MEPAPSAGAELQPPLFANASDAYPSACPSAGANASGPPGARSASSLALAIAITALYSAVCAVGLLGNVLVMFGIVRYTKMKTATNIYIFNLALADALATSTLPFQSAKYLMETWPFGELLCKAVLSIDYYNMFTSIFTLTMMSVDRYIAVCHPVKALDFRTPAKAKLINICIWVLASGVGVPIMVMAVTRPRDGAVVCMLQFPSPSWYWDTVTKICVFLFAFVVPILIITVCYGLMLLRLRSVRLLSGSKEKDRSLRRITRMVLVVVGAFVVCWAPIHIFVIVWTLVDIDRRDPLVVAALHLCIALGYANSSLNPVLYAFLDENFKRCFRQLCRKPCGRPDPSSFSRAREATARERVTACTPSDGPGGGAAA

[4] = target: Kappa-type opioid receptor (Homo sapiens) (UniProt P41145); conditions: Compound concentration 10.0 uM
Chain of Kappa-type opioid receptor (Homo sapiens) (P41145 whole entry): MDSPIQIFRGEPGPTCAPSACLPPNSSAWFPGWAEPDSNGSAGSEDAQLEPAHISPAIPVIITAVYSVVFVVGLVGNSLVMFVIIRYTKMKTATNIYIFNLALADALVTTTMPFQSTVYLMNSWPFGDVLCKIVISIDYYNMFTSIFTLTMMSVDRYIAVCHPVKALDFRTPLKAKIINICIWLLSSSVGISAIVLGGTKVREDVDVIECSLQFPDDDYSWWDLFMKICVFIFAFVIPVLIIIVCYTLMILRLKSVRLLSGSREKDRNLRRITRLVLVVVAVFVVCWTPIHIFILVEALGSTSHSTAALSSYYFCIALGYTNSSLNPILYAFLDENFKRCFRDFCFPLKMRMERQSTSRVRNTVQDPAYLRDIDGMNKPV

[5] = target: 5-hydroxytryptamine receptor 1A (Homo sapiens) (UniProt P08908); conditions: Compound concentration 10.0 uM
Chain of 5-hydroxytryptamine receptor 1A (Homo sapiens) (P08908 whole entry): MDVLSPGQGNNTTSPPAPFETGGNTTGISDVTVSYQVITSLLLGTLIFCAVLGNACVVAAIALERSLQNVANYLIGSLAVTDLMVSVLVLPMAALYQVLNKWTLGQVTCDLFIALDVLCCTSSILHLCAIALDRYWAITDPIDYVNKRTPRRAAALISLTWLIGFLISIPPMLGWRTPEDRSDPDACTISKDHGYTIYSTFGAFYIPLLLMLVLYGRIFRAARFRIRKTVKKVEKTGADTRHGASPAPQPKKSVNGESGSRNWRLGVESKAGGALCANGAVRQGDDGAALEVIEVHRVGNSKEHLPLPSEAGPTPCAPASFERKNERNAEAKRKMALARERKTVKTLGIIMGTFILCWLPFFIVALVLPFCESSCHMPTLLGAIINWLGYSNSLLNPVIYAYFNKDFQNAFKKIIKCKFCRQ

[6] = target: Mitogen-activated protein kinase 14 (Homo sapiens) (UniProt Q16539); test: p38alpha kinase (h) CEREP ligand profiling; conditions: Compound concentration 10.0 uM
Chain of Mitogen-activated protein kinase 14 (Homo sapiens) (Q16539 whole entry): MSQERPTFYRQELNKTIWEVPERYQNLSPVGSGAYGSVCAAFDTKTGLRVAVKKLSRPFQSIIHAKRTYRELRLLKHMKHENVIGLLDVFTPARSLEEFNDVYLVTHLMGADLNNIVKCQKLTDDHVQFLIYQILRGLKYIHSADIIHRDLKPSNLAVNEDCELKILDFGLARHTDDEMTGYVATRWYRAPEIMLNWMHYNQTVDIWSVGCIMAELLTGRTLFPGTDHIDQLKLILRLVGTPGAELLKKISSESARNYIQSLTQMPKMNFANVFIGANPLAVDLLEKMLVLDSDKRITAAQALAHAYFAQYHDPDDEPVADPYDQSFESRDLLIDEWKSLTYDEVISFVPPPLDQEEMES

[7] = target: Sodium/potassium-transporting ATPase (Homo sapiens) (UniProt P05023+P14415+P05026+P50993+P54709+P13637+Q13733+P54710); test: ATPase (Na+/K+) CEREP ligand profiling; type: protein-complex assay; conditions: Compound concentration 10.0 uM
[8] = target: D(2) dopamine receptor (Homo sapiens) (UniProt P14416); test: D2S (h) CEREP ligand profiling; conditions: Compound concentration 10.0 uM
[9] = target: Sodium-dependent serotonin transporter (Homo sapiens) (UniProt P31645); test: 5-HT transporter (h) CEREP ligand profiling; conditions: Compound concentration 10.0 uM
Chain of Sodium-dependent serotonin transporter (Homo sapiens) (P31645 whole entry, looked up): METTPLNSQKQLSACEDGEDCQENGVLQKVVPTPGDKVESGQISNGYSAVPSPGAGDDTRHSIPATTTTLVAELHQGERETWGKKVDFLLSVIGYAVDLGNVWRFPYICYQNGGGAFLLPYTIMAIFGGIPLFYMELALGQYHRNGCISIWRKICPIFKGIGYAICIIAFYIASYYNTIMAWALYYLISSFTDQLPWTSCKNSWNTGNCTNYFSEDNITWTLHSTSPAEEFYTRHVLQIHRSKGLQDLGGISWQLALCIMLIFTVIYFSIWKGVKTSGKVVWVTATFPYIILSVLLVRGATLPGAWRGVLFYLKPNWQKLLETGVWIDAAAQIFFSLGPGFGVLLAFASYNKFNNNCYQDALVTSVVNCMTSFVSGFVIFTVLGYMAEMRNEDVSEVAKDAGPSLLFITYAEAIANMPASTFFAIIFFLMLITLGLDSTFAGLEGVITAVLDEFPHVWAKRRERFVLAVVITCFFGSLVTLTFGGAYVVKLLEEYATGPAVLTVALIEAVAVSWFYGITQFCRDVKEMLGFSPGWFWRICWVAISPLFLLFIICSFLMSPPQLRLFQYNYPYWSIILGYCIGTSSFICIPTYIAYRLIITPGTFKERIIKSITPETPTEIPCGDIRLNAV

[10] = target: Ca2+ channel (L, verapamil site) (phenylalkylamines); voltage-gated L-type calcium channel (Homo sapiens, UniProt O60840+Q01668+Q13698+Q13936); test: Ca2+ channel (L, verapamil site) (phenylalkylamines) CEREP ligand profiling; type: protein assay; conditions: compound concentration 10 uM
[11] = target: Voltage-dependent N-type calcium channel subunit alpha-1B (Homo sapiens) (UniProt Q00975); test: Ca2+ channel (N) CEREP ligand profiling; conditions: Compound concentration 10.0 uM
[12] = target: 5-hydroxytryptamine receptor 1A (Homo sapiens) (UniProt P08908); test: 5-HT1A (h) CEREP ligand profiling; conditions: Compound concentration 10.0 uM
[13] = target: Sodium-dependent dopamine transporter (Homo sapiens) (UniProt Q01959); test: DA transporter (h) CEREP ligand profiling; conditions: Compound concentration 10.0 uM
[14] = target: T1, Fatty-acid amide hydrolase 1; test: Glutamate dehydrogenase-coupled FAAH assay (preincubation time 60 min)
[15] = CI channel CEREP ligand profiling
[16] = target: Ca2+ channel (L, diltiazem site) (benzothiazepines); voltage-gated L-type calcium channel (Homo sapiens, UniProt O60840+Q01668+Q13698+Q13936); test: Ca2+ channel (L, diltiazem site) (benzothiazepines) CEREP ligand profiling; type: protein assay; conditions: compound concentration 10 uM
[17] = target: 5-hydroxytryptamine receptor 7 (Homo sapiens) (UniProt P34969); test: 5-HT7 (h) CEREP ligand profiling; conditions: Compound concentration 10.0 uM
[18] = target: 5-hydroxytryptamine receptor 4 (Homo sapiens) (UniProt Q13639); test: 5-HT4e (h) CEREP ligand profiling; conditions: Compound concentration 10.0 uM
Chain of 5-hydroxytryptamine receptor 4 (Homo sapiens) (Q13639 whole entry): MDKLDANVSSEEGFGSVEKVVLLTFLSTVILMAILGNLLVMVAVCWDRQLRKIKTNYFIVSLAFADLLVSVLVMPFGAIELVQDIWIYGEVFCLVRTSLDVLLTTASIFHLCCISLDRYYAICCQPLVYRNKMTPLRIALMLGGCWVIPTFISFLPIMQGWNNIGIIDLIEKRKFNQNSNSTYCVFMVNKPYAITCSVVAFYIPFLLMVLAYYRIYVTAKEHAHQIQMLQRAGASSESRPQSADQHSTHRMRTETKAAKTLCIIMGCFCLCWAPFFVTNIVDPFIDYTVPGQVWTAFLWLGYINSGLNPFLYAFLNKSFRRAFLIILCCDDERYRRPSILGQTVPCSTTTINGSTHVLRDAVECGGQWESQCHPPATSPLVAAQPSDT

[19] = target: Vasopressin V1a receptor (Homo sapiens) (UniProt P37288); test: V1a (h) CEREP ligand profiling; conditions: Compound concentration 10.0 uM
[20] = target: Phosphodiesterase 4 (Homo sapiens) (UniProt P27815+Q08499+Q07343+Q08493); test: PDE 4 (h) CEREP ligand profiling; type: protein assay; conditions: Compound concentration 10.0 uM
[21] = target: Alpha-2B adrenergic receptor (Homo sapiens) (UniProt P18089); test: alpha2B (h) CEREP ligand profiling; conditions: Compound concentration 10.0 uM
[22] = target: Alpha-1A adrenergic receptor (Homo sapiens) (UniProt P35348); conditions: Compound concentration 10.0 uM
[23] = target: Delta-type opioid receptor (Homo sapiens) (UniProt P41143); test: delta2 (h) (DOP) CEREP ligand profiling; conditions: Compound concentration 10.0 uM
[24] = target: D(3) dopamine receptor (Homo sapiens) (UniProt P35462); test: D3 (h) CEREP ligand profiling; conditions: Compound concentration 10.0 uM
[25] = target: Sigma non-opioid intracellular receptor 1 (Homo sapiens, UniProt Q99720); test: GPCRScan assay: inhibition of Sigma 1; set-up: radioligand conc. used [nm] 4.0 – 5.0, parental cells HEKT
Chain of Sigma non-opioid intracellular receptor 1 (Q99720 whole entry): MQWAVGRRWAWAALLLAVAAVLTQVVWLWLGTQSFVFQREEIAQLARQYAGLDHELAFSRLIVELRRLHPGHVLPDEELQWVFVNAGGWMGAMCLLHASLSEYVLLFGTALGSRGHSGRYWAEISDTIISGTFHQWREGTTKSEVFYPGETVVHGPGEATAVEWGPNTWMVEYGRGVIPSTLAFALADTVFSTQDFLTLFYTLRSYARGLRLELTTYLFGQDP

Cannabinoid receptor 2 = Cannabinoid receptor 2 (Homo sapiens, UniProt P34972); test: CB2 (h) CEREP ligand profiling
Chain of Cannabinoid receptor 2 (P34972 whole entry): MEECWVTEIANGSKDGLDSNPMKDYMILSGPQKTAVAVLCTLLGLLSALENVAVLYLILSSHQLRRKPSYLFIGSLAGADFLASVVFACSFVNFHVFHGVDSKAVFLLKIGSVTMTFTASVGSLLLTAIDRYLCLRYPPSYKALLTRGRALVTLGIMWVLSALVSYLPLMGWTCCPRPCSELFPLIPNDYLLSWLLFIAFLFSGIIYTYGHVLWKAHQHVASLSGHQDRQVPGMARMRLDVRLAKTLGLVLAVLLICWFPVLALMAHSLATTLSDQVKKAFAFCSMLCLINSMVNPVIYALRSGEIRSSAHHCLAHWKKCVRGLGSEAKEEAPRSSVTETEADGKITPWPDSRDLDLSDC

[26] = target: Alpha-2C adrenergic receptor (Homo sapiens, UniProt P18825); test: GPCRScan assay: inhibition of Alpha2C; set-up: radioligand conc. used [nm] 0.5 – 1.0, parental cells stable MDCK
Chain of Alpha-2C adrenergic receptor (P18825 whole entry): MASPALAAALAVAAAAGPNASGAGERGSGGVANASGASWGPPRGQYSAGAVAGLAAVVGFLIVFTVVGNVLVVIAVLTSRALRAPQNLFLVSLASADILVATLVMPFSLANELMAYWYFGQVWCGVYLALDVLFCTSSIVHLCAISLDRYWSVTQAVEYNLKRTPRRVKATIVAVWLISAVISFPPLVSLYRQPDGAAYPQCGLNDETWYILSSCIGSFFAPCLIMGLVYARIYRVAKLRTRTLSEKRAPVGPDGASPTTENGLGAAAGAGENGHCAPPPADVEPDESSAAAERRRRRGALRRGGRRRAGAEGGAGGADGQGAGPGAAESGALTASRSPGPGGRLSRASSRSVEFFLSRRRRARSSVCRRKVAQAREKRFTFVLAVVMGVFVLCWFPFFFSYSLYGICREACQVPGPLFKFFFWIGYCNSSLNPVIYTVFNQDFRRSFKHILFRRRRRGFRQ

[27] = target: MAO-A (Amine oxidase [flavin-containing] A) (Homo sapiens, UniProt P21397); test: MAO-A CEREP ligand profiling; conditions: compound concentration 10 uM
[28] = target: Histamine H3 receptor (Homo sapiens) (UniProt Q9Y5N1); test: H3 (h) CEREP ligand profiling; conditions: Compound concentration 10.0 uM
[29] = target: Acetylcholinesterase (Homo sapiens) (UniProt P22303); test: Acetylcholinesterase (h) CEREP ligand profiling; conditions: Compound concentration 10.0 uM
[30] = target: Gastrin/cholecystokinin type B receptor (Homo sapiens) (UniProt P32239); test: CCKB (h) (CCK2) CEREP ligand profiling; conditions: Compound concentration 10.0 uM
Chain of Gastrin/cholecystokinin type B receptor (Homo sapiens) (P32239 whole entry): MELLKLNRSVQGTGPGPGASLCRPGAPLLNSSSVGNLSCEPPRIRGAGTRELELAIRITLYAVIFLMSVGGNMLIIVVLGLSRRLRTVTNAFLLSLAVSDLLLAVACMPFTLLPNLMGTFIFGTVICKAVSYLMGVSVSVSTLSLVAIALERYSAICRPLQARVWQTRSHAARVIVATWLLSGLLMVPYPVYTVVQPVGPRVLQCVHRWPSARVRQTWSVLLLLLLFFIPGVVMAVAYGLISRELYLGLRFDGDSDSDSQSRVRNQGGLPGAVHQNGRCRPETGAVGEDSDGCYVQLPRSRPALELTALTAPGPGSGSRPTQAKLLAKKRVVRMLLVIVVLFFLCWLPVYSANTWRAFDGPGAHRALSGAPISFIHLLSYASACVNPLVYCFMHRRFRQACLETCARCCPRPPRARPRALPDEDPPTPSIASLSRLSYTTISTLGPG

[31] = target: Kappa-type opioid receptor (Homo sapiens) (UniProt P41145); test: kappa (KOP) CEREP ligand profiling; conditions: Compound concentration 10.0 uM
[32] = target: Ca2+ channel (L, DHP site); voltage-gated L-type calcium channel (Homo sapiens, UniProt O60840+Q01668+Q13698+Q13936); test: Ca2+ channel (L, DHP site) CEREP ligand profiling; type: protein assay; conditions: compound concentration 10 uM
[33] = target: Glutamate [NMDA] receptor (Homo sapiens) (UniProt Q05586+Q12879+Q13224+O15399+O60391+Q14957+Q8TCU5); test: NMDA CEREP ligand profiling; type: protein-complex assay; conditions: Compound concentration 10.0 uM
[34] = target: Type-1 angiotensin II receptor (Homo sapiens) (UniProt P30556); test: AT1 (h) CEREP ligand profiling; conditions: Compound concentration 10.0 uM
[35] = target: Histamine H4 receptor (Homo sapiens) (UniProt Q9H3N8); conditions: Compound concentration 10.0 uM
[36] = target: Alpha-1D adrenergic receptor (Homo sapiens) (UniProt P25100); conditions: Compound concentration 10.0 uM
[37] = target: Vascular endothelial growth factor receptor 1 (Homo sapiens) (UniProt P17948); test: FLT-1 (h) (VEGFR1) CEREP ligand profiling; conditions: Compound concentration 10.0 uM
[38] = target: 5-hydroxytryptamine receptor 2A (Homo sapiens, UniProt P28223); test: GPCRScan assay: inhibition of 5-HT2A; set-up: radioligand conc. used [nm] 1.2 – 2.4, parental cells HEKT

O=C(Nc1cccnn1)N1CC(C/C=C/c2cncc(Oc3ccc(C(F)(F)F)cn3)n2)C1
inhibition [1]: 23.7%
IC50 [2]: > 100000 nM (not active)

O=C(Nc1cccnn1)N1CCC(=Cc2cccc(Oc3ccc(C(F)(F)F)cn3)c2)CC1
inhibition [3]: 12.3%
inhibition [4]: 30.5%
inhibition [5]: 20.2%
inhibition [6]: 1%
inhibition [7]: -2%
inhibition [8]: -9%
inhibition [9]: 11%
inhibition at 10 µM [10]: -5% (not active)
inhibition [11]: -5%
inhibition [12]: 6%
inhibition [13]: -1%
IC50 [14]: 7.4 nM (active)
Ki [15]: 3000 nM
inhibition ([15]; Compound concentration 10.0 uM): 78%
inhibition at 10 µM [16]: 1% (not active)
inhibition [17]: 7%
inhibition [18]: -8%
inhibition [19]: 8%
inhibition [20]: 18%
inhibition [21]: 4%
inhibition [22]: 10.3%
inhibition [23]: 2%
inhibition [24]: 3%
Ki [25]: 472 nM
Ki (Cannabinoid receptor 2): 5100 nM
inhibition (Cannabinoid receptor 2; Compound concentration 10.0 uM): 55%
Ki [26]: 596 nM
inhibition at 10 µM [27]: 13% (not active)
inhibition [28]: 10%
inhibition [29]: 10%
inhibition [30]: -6%
inhibition [31]: 0%
inhibition at 10 µM [32]: 11% (not active)
inhibition [33]: -3%
inhibition [34]: -10%
inhibition [35]: 17.3%
inhibition [36]: 3.84%
inhibition [37]: 4%
Ki [38]: 249 nM
